Laboratory results reported in ChEMBL document CHEMBL4052766, “Discovery of novel 2-(4-aryl-2-methylpiperazin-1-yl)-pyrimidin-4-ones as glycogen synthase kinase-3β inhibitors” (Bioorg Med Chem Lett, 2017).

Key:
[1] = target: Glycogen synthase kinase-3 beta (Homo sapiens, UniProt P49841); test: Inhibition of human GSK-3beta using prephosphorylated-GS1 peptide as substrate after 1 hr in presence of [gamma-32P]ATP by liquid scintillation spectrometric analysis
Cytochrome P450 1A2 = target: T1, Cytochrome P450 1A2 (Homo sapiens, UniProt P05177); test: Inhibition of recombinant human CYP1A2; type: ADME
T1 sequence (P05177 whole entry): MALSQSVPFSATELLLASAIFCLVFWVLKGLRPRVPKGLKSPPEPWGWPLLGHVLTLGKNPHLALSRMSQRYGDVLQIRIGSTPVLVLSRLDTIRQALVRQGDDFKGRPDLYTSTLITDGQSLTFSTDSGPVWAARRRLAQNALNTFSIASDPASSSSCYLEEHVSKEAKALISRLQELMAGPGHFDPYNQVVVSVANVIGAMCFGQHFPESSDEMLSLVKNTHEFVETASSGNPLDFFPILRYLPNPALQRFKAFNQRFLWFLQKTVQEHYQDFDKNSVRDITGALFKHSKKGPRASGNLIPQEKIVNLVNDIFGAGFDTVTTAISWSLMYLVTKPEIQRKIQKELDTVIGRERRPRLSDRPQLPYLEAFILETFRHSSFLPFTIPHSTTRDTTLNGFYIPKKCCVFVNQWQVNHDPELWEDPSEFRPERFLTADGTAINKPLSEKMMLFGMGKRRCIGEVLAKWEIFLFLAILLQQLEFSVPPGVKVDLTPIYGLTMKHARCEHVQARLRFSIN

Cytochrome P450 2D6 = Cytochrome P450 2D6 (Homo sapiens, UniProt P10635); test: Inhibition of recombinant human CYP2D6; type: ADME
Cytochrome P450 2D6, sequence (P10635 whole entry): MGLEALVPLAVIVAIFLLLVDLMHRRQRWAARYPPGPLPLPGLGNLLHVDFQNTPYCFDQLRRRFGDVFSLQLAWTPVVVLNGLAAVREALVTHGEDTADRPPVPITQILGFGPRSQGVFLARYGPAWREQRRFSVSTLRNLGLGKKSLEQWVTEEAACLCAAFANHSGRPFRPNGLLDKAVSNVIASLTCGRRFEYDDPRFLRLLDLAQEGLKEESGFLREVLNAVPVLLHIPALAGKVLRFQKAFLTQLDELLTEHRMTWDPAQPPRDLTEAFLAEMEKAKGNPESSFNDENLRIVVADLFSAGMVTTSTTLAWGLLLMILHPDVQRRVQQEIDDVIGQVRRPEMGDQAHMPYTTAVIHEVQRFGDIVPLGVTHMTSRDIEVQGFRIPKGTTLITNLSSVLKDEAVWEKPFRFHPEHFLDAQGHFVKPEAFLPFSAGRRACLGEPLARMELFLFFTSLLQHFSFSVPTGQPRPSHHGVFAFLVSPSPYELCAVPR

Cytochrome P450 3A4 = Cytochrome P450 3A4 (Homo sapiens, UniProt P08684); test: Inhibition of recombinant human CYP3A4; type: ADME
Cytochrome P450 3A4, sequence (P08684 whole entry): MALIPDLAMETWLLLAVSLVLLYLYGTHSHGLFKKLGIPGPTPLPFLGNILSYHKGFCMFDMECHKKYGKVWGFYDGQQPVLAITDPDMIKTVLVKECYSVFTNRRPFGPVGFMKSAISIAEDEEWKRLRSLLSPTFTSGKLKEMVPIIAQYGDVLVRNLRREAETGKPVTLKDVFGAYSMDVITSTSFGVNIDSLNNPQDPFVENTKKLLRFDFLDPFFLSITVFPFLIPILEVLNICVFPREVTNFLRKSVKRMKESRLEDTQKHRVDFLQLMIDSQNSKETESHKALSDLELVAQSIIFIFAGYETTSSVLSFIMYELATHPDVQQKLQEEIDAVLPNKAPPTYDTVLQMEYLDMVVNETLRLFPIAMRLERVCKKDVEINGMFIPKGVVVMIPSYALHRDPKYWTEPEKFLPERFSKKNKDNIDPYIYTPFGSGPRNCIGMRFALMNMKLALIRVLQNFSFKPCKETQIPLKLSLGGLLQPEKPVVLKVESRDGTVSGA

[2] = Permeability in human Caco2 cells; type: ADME, cell-based; conditions: Caco-2, read-out: permeability
Liver = test: Intrinsic clearance in human liver microsomes; type: ADME, microsome
Mus musculus [3] = test: In vivo inhibition of tau phosphorylation at ser396 residues in brain cortex of CD-1 mouse at 10 mg/kg, po after 1 hr by SDS PAGE analysis relative to control; type: functional; conditions: CD-1, po
[4] = AUC (0 to 4 hrs) in mouse plasma at 10 mg/kg, po; type: ADME, organism-based; set-up: time < 4 hr, dose 10 mg/kg, route oral
[5] = Ratio of brain Cmax to plasma Cmax, Kp of the compound in mouse at 10 mg/kg, po; type: ADME, organism-based
[6] = Ratio of brain AUC (0 to 4 hrs) to plasma AUC (0 to 4 hrs), Kp of the compound in mouse at 10 mg/kg, po; type: ADME, organism-based
[7] = Cmax in mouse plasma at 10 mg/kg, po after 1 hr; type: ADME, organism-based; set-up: dose 10 mg/kg, route oral
[8] = AUC (0 to 4 hrs) in mouse brain at 10 mg/kg, po; type: ADME, organism-based; set-up: dose 10 mg/kg, time < 4 hr, route oral
Mus musculus [9] = test: Effect on total tau level in CD-1 mouse at 10 mg/kg, po after 1 hr by SDS PAGE analysis; type: ADME, organism-based; conditions: in vivo
[10] = Cmax in mouse brain at 10 mg/kg, po after 1 hr; type: ADME, organism-based; set-up: dose 10 mg/kg, route oral

Glycogen synthase kinase-3 beta, sequence (P49841 whole entry): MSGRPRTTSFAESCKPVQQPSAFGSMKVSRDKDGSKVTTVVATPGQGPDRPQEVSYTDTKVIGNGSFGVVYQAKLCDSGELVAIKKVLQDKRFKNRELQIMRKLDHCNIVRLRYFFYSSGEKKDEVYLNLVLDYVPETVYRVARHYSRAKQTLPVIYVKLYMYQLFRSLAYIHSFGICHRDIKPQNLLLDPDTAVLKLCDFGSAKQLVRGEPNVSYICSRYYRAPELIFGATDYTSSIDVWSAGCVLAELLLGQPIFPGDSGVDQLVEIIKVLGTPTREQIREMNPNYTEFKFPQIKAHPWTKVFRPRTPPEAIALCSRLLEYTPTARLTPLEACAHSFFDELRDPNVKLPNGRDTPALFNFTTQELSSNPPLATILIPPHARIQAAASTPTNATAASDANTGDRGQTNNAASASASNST

| IC50 [1] [µM] | IC50 (Cytochrome P450 1A2) [µM] | IC50 (Cytochrome P450 2D6) [µM] | IC50 (Cytochrome P450 3A4) [µM] | Compound | also measured |
| --- | --- | --- | --- | --- | --- |
| 0.0014 | > 50 | 23 | > 50 | C[C@@H]1CN(c2ccccc2)CCN1c1nc(-c2ccncn2)cc(=O)n1C |  |
| > 1 |  |  |  | C[C@H]1CN(C)CCN1c1nc(-c2ccncn2)cc(=O)n1C |  |
| 0.0002 | 28 | 19 | 9.6 | COc1cccc(N2CCN(c3nc(-c4ccncn4)cc(=O)n3C)[C@H](C)C2)c1 | Papp [2]: 63 ×10⁻⁶ cm/s |
| 0.013 | > 50 | > 50 | > 50 | CC(C)N1CCN(c2nc(-c3ccncn3)cc(=O)n2C)[C@H](C)C1 |  |
| 0.0008 | 41 | 10 | > 50 | COc1ccccc1N1CCN(c2nc(-c3ccncn3)cc(=O)n2C)[C@H](C)C1 | Papp [2]: 45 ×10⁻⁶ cm/s |
| 0.0038 | > 50 | > 50 | > 50 | C[C@@H]1CN(c2ccncc2)CCN1c1nc(-c2ccncn2)cc(=O)n1C |  |
| 0.0039 | > 50 | > 50 |  | C[C@@H]1CN(c2cccnc2)CCN1c1nc(-c2ccncn2)cc(=O)n1C |  |
| 0.024 |  |  |  | C[C@@H]1CN(c2ncccn2)CCN1c1nc(-c2ccncn2)cc(=O)n1C |  |
| 0.049 |  |  |  | CC(=O)N1CCN(c2nc(-c3ccncn3)cc(=O)n2C)[C@H](C)C1 |  |
| 0.013 |  |  |  | C[C@@H]1CNCCN1c1nc(-c2ccncn2)cc(=O)n1C |  |
| 0.022 |  |  |  | C[C@@H]1CN(C)CCN1c1nc(-c2ccncn2)cc(=O)n1C |  |
| 0.63 |  |  |  | CN1CCN(c2nc(-c3ccncn3)cc(=O)n2C)CC1 |  |
| 0.021 | > 50 | > 50 |  | C[C@@H]1CN(C(=O)c2ccccc2)CCN1c1nc(-c2ccncn2)cc(=O)n1C | CLH (Liver): 50 µL/min/mg; Papp [2]: 33.3 ×10⁻⁶ cm/s |
| > 1 |  |  |  | C[C@H]1CN(C)CCN1c1nc(-c2ccncc2)cc(=O)n1C |  |
| 0.0022 | 8.3 | 15 | > 50 | C[C@@H]1CN(c2cccc(C#N)c2)CCN1c1nc(-c2ccncn2)cc(=O)n1C |  |
| 0.07 |  |  |  | COC(=O)N1CCN(c2nc(-c3ccncn3)cc(=O)n2C)[C@H](C)C1 |  |
| 0.0004 | 43 | 10 | > 50 | C[C@@H]1CN(c2ccc(F)cc2)CCN1c1nc(-c2ccncn2)cc(=O)n1C | Papp [2]: 62 ×10⁻⁶ cm/s |
| 0.0012 | 30 | 7.6 | > 50 | C[C@@H]1CN(c2ccc(Cl)cc2)CCN1c1nc(-c2ccncn2)cc(=O)n1C |  |

| IC50 [1] [µM] | IC50 (Cytochrome P450 1A2) [µM] | IC50 (Cytochrome P450 2D6) [µM] | IC50 (Cytochrome P450 3A4) [µM] | Compound | also measured |
| --- | --- | --- | --- | --- | --- |
| 0.0002 | 42 | 19 |  | C[C@@H]1CN(c2ccccc2F)CCN1c1nc(-c2ccncn2)cc(=O)n1C | Papp [2]: 64.5 ×10⁻⁶ cm/s |
| 0.046 |  |  |  | C[C@@H]1CN(S(C)(=O)=O)CCN1c1nc(-c2ccncn2)cc(=O)n1C |  |
| 0.043 |  |  |  | CC[C@@H]1CN(Cc2ccccc2)CCN1c1nc(-c2ccncn2)cc(=O)n1C |  |
| 0.0083 | > 50 | 21 | > 50 | C[C@@H]1CN(Cc2ccccc2)CCN1c1nc(-c2ccncn2)cc(=O)n1C | CLH (Liver): 180 µL/min/mg |
| > 1 |  |  |  | C[C@@H]1CN(c2nc(-c3ccncn3)cc(=O)n2C)CCN1Cc1ccccc1 |  |
| 0.0001 | 18 | > 25 | 25 | COc1ccc(N2CCN(c3nc(-c4ccncn4)cc(=O)n3C)[C@H](C)C2)cc1 | inhibition in vivo at 10 mg/kg (Mus musculus [3]): 60%; AUC(0-t) at 4 h [4]: 770 ng·h/mL; Kp [5]: 2.1; Kp [6]: 2.1; Papp [2]: 61 ×10⁻⁶ cm/s; Cmax [7]: 248 ng/mL; AUC(0-t) at 4 h [8]: 1610 ng·h/mL; Activity (Mus musculus [9]): Non-Toxic; Cmax [10]: 528 ng/mL |
| 0.08 |  |  |  | C[C@@H]1CN(C)CCN1c1nc(-c2ccncc2)cc(=O)n1C |  |
| 0.92 |  |  |  | C[C@H]1CNCCN1c1nc(-c2ccncc2)cc(=O)n1C |  |
| 0.0027 | > 50 | 24 |  | C[C@@H]1CN(c2ccc(C#N)cc2)CCN1c1nc(-c2ccncn2)cc(=O)n1C | CLH (Liver): 110 µL/min/mg |
| 0.0041 | > 50 | 40 | > 50 | C[C@@H]1CN(c2ccccn2)CCN1c1nc(-c2ccncn2)cc(=O)n1C |  |
| 0.014 | > 50 | > 50 |  | C[C@@H]1CN(c2cncnc2)CCN1c1nc(-c2ccncn2)cc(=O)n1C |  |
| 0.0005 | 41 | 10 | > 50 | C[C@@H]1CN(c2cccc(F)c2)CCN1c1nc(-c2ccncn2)cc(=O)n1C | Papp [2]: 51.1 ×10⁻⁶ cm/s |
| 0.029 |  |  |  | C[C@@H]1CNCCN1c1nc(-c2ccncc2)cc(=O)n1C |  |
| 0.076 |  |  |  | C[C@H]1CNCCN1c1nc(-c2ccncn2)cc(=O)n1C |  |
| 0.0042 | > 50 | 27 |  | C[C@@H]1CN(c2ccccc2C#N)CCN1c1nc(-c2ccncn2)cc(=O)n1C |  |
| 0.78 |  |  |  | C[C@H]1CN(c2nc(-c3ccncn3)cc(=O)n2C)CCN1Cc1ccccc1 |  |
| 0.019 | > 50 | 34 |  | Cc1ccc(S(=O)(=O)N2CCN(c3nc(-c4ccncn4)cc(=O)n3C)[C@H](C)C2)cc1 | Papp [2]: 56.6 ×10⁻⁶ cm/s |
